# Publication PMC6501587 (The Journal of neuroscience : the official journal of the …, 2009)
# Substitutions are numbered along the chain they refer to. “Also recorded” adds a separate entry of the source. Where two headings read alike, the source gives them in different places.
# How the values were obtained:
# P2X2bR [1] = biological target: T1, P2X2bR (Rattus norvegicus, UniProt P49653, DEL370-438); assay type: cell-based; conditions: oocytes
# T1 sequence (P49653 with tags, fused parts or gaps DEL370-438): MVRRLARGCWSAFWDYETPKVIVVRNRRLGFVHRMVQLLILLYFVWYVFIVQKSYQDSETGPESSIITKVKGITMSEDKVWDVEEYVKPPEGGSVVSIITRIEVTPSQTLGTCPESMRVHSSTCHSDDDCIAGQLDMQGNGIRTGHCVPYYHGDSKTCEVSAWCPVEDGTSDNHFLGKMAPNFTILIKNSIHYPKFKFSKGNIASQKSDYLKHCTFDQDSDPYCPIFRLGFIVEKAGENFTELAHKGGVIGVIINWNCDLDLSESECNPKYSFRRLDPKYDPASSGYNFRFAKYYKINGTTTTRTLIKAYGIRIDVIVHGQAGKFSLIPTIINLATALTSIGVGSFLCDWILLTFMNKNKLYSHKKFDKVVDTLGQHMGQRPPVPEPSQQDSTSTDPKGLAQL
# P2X2aR [2] = biological target: T2, P2X2aR (Rattus norvegicus, UniProt P49653); assay: ATP-evoked currents, whole-cell patch clamp, HEK293 cells expressing P2X2aR; assay type: cell-based
# T2 sequence (P49653 1-472): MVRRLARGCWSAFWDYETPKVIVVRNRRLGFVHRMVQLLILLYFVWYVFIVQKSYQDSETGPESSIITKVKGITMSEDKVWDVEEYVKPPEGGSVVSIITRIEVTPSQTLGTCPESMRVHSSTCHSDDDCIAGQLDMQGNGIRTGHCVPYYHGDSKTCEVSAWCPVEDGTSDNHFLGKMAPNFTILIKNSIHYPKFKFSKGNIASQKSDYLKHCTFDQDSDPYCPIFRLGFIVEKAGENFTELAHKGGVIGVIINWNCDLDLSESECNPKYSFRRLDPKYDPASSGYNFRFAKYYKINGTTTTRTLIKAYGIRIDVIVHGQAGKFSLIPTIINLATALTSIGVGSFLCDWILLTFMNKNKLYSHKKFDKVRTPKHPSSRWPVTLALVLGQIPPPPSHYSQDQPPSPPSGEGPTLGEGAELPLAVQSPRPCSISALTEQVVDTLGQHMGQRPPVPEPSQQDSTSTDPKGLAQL
# P2X4/2b chimera = assay type: cell-based, rat; conditions: oocytes
# P2X2a-C430S [3] = biological target: T3, P2X2a-C430S (Rattus norvegicus, UniProt P49653, C430S); assay type: cell-based
# T3 sequence (P49653 1-472 C430S): T2 sequence (P49653 1-472) with C430S
# P2X2a-C430S [4] = biological target: T3, P2X2a-C430S; assay type: cell-based; conditions: HEK293 cells
# P2X4R = biological target: T4, P2X4R (Rattus norvegicus, UniProt P51577); assay type: cell-based; conditions: oocytes
# T4 sequence (P51577 1-388): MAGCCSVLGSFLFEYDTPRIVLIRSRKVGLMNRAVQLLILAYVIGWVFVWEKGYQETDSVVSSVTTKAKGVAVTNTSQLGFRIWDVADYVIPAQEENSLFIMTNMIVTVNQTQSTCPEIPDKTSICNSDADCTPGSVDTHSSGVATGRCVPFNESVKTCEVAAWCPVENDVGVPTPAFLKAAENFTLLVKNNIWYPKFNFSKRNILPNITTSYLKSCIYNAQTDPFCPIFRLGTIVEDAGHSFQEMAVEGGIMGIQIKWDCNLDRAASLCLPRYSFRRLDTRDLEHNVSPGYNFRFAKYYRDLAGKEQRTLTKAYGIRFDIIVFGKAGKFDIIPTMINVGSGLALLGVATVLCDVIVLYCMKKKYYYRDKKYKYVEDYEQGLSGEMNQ
# P2X4/2a chimera = assay type: cell-based, rat; conditions: oocytes
# P2X2bR [5] = biological target: T1, P2X2bR; assay type: cell-based; conditions: HEK293 cells
# P2X2aR [6] = biological target: T2, P2X2aR; assay type: cell-based
# P2X2a-C430A = biological target: T5, P2X2a-C430A (Rattus norvegicus, UniProt P49653, C430A); assay type: cell-based; conditions: oocytes
# T5 sequence (P49653 1-472 C430A): T2 sequence (P49653 1-472) with C430A
# P2X4/2a-C430A chimera = conditions: oocytes; supplemental Fig. 3
compound,measurement,setting,value
"OO [H2O2, hydrogen peroxide]",sensitivity to H2O2,P2X2bR [1],totally resistant
same,increase of ATP-evoked currents,"P2X2aR [2]; 1 mM H2O2, ATP ~EC15",1.9 ± 0.3 fold
same,sensitivity to H2O2,P2X4/2b chimera,totally resistant
same,sensitivity to H2O2,P2X2a-C430S [3]; oocytes,totally resistant
same,sensitivity to H2O2,P2X2a-C430S [4]; 1 mM,completely resistant
same,effect of concentrations larger than 1 mM on cells,oocytes and HEK293 cells,cell damage and membrane dissolution
same,inhibition of receptor activity,P2X4R; 1 mM H2O2,43.8 ± 0.1%
same,increase of the currents,P2X4/2a chimera; 1 mM H2O2,1.9 ± 0.2 fold
same,currents remaining increased after washout,P2X4/2a chimera; 10 min washout after 1 mM H2O2,0.3 ± 0.1 fold
same,sensitivity to H2O2,P2X2bR [5]; 1 mM,completely resistant
same,increase of ATP-gated currents,"P2X2aR [6]; 0.3 mM H2O2, ATP ~EC15, oocytes",2.8 ± 0.3 fold
same,sensitivity to H2O2,P2X2a-C430A,totally resistant
mercury,effect on rate of deactivation,P2X2bR [1]; mercury,not significantly affected
same,sensitivity to mercury,P2X2bR [1]; supplemental Fig. 3,residual mercury-dependent potentiation
same,increase of ATP-evoked currents,"P2X2aR [2]; 10 μM metal, ATP ~EC15",5.9 ± 1.3 fold
same,effect on ATP concentration-response curve,P2X4/2b chimera; 10 μM mercury,did not displace
same,effect on receptor deactivation,P2X4/2b chimera; 10 μM mercury,nor modified receptor deactivation
same,effect on receptor deactivation,"P2X4/2b chimera; 10 μM mercury, listed as Mercury",not significantly affected
same,sensitivity to mercury,P2X4/2b chimera; 10 μM,mercury resistant; also recorded: insensitivity
same,potentiation of ATP-evoked currents,"P2X2a-C430S [3]; 10 μM mercury, ATP ~EC15, oocytes",2.2 ± 0.9 fold
same,reversibility of effect,P2X2a-C430S [3]; mercury,easily reversible
same,sensitivity to mercury,"P2X2a-C430S [3]; oocytes, supplemental Fig. 3",residual mercury-dependent potentiation
same,sensitivity to mercury,P2X4/2a-C430A chimera,insensitivity
same,increase of ATP-gated currents,"P2X2a-C430S [4]; 10 μM metal, ATP ~EC15",1.9 ± 0.2 fold
same,effect on ATP-induced currents,P2X4R; 10 μM metal pre-applied 1 min and co-applied with 10 μM ATP,inhibited
same,washout time to attain control currents,P2X4R; after 10 μM metal,20 to 30 min
same,effect on maximal ATP response,P2X4/2a chimera; 10 μM mercury,without significantly altering
same,potentiation of 1 μM ATP-induced current,"P2X4/2a chimera; 10 μM metal, 1 μM ATP",3.7 ± 0.8 fold
same,10–90% deactivation time,P2X4/2a chimera; in the presence of mercury,104.7 ± 11.5 s
same,increase of 10–90% deactivation time,P2X4/2a chimera; in the presence of mercury,9 fold
same,sensitivity to mercury,P2X4/2a chimera,mercury-sensitive; also recorded: residual mercury-dependent potentiation
same,increase of ATP-gated currents,"P2X2bR [5]; 10 μM metal, ATP ~EC15",2.5 ± 0.5 fold
same,effect on the ATP-gated current,"P2X2aR [6]; 10 μM metal pre-applied 1 min and co-applied with 30 μM ATP, oocytes",potentiated
same,potentiation of ATP-evoked currents,"P2X2aR [6]; 10 μM metal, 1 min prior and during ATP (~EC15), oocytes",12.3 ± 2.6 fold
same,potentiation of response still present after washout,"P2X2aR [6]; 20 min after washout of 10 μM metal, oocytes",35 ± 12%
same,reversibility of effect on peak current amplitude,"P2X2aR [6]; after 10 and 20 min washouts, oocytes",not completely reversible
same,10–90% deactivation time,"P2X2aR [6]; in the presence of mercury, oocytes",17.2 ± 2.8 s
same,decrease in the current amplitude on prolonged washout of the metal,"P2X2aR [6]; mercury-induced potentiation, wild type receptor",~70%
same,potentiation of ATP-evoked currents,"P2X2a-C430A; 10 μM mercury, ATP ~EC15",3.3 ± 0.7 fold
same,reversibility of effect,P2X2a-C430A; mercury,totally reversible; also recorded: easily reversible
same,sensitivity to mercury,P2X2a-C430A; supplemental Fig. 3,residual mercury-dependent potentiation
